Source: PMC9080521, “Molecular basis of rutin inhibition of protein disulfide isomerase (PDI) by combined in silico and experimental methods” (RSC Advances, 2018)

Experiments:
full-length human PDI = full-length human PDI (Homo sapiens, UniProt P07237); assay: Fluorescence-based direct binding assay; settings: protein 18 μM, excitation 430 nm, emission 530 nm, n=3, Standard Error 0.18 μM; read-out: IC50 (binding affinity, fluorescence)
Procedure: (§1) 2. Binding affinity (IC50) of rutin to human or murine MBP-fused PDI proteins The MBP-fused PDI proteins (18 μМ) were incubated with a gradient of 10 rutin’s concentrations differed by 2- or 3-fold and 3 repetitions in 384-well black plate at room temperature for 30 min before measurements. The total assay volume was filled to 100 μL using the assay buffer (pH 7.4) contains 150 mM NaCl, 20 mM Tris, 1 mM EDTA, 1 mM β-ME and 5% glycerin. The fluorescence emission spectrum of the mixture were measured with the excitation at 430 nm and the emission at 530 nm at room temperature on a BioTek Synergy microplate reader with a sensitivity of 100. The data were analyzed by GraphPad Prism (Fig. S3).

human MBP-PDI-b′x = target: T1, human MBP-PDI-b′x (Homo sapiens, UniProt P07237); assay: Fluorescence-based direct binding assay; settings: protein 18 μM, excitation 430 nm, emission 530 nm, n=3, Standard Error 0.16 μM; read-out: IC50 (binding affinity, fluorescence)
T1 construct: The human MBP-PDI-b′x (235–369); His-tag; made in house; host or cells: E. coli BL21 (DE3)
T1 sequence (P07237 235-369): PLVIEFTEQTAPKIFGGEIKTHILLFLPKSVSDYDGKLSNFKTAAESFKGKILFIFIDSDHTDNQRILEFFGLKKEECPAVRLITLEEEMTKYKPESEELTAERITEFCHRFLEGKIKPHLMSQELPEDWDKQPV
Procedure: as §1

human MBP-PDI-b′xa′ = target: T2, human MBP-PDI-b′xa′ (Homo sapiens, UniProt P07237); assay: Fluorescence-based direct binding assay; settings: protein 18 μM, excitation 430 nm, emission 530 nm, n=3, Standard Error 0.14 μM; read-out: IC50 (binding affinity, fluorescence)
T2 construct: MBP-PDI-b′xa′(235–479); His-tag; made in house; host or cells: E. coli BL21 (DE3)
T2 sequence (P07237 235-479): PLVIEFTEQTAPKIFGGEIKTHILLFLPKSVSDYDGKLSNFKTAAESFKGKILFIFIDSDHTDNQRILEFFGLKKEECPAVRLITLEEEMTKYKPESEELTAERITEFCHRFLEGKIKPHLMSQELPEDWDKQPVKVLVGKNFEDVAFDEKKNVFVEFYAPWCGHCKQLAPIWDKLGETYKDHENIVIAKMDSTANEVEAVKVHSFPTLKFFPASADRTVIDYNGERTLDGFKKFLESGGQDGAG
Procedure: as §1

murine MBP-mPDI-b′x = target: T3, murine MBP-mPDI-b′x (Mus musculus, UniProt P09103); assay: Fluorescence-based direct binding assay; settings: protein 18 μM, excitation 430 nm, emission 530 nm, n=3, Standard Error 0.15 μM; read-out: IC50 (binding affinity, fluorescence)
T3 construct: The murine MBP-mPDI-b′x (236–369); His-tag; made in house; host or cells: E. coli BL21 (DE3)
T3 sequence (P09103 236-369): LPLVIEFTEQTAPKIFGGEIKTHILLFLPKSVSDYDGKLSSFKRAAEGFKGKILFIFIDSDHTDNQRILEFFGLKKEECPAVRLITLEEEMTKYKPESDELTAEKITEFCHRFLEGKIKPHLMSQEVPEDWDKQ
Procedure: as §1

murine MBP-mPDI-b′xa′ = target: T4, murine MBP-mPDI-b′xa′ (Mus musculus, UniProt P09103); assay: Fluorescence-based direct binding assay; settings: protein 18 μM, excitation 430 nm, emission 530 nm, n=3, Standard Error 0.15 μM; read-out: IC50 (binding affinity, fluorescence)
T4 construct: MBP-mPDI-b′xa′ (236–477); His-tag; made in house; host or cells: E. coli BL21 (DE3)
T4 sequence (P09103 236-477): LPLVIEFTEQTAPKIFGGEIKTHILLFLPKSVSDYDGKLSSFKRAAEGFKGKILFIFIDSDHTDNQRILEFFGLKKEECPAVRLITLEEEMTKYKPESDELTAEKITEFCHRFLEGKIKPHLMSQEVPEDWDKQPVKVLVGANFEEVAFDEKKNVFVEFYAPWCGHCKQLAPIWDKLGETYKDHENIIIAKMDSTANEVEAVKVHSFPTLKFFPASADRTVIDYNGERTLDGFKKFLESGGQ
Procedure: as §1

murine proteins (mPDI) = murine proteins (mPDI) (Mus musculus, UniProt P09103); assay: Fluorescence-based direct binding assay, murine proteins as a group; settings: murine MBP-mPDI proteins, read-out: binding affinities of murine proteins (IC50)
murine proteins (mPDI), sequence (P09103 236-369): as the sequence (P09103 236-369) above
Procedure: as §1

MBP-PDI-b′xa′ E359A = target: T5, MBP-PDI-b′xa′ E359A (Homo sapiens, UniProt P07237, E359A); assay: Insulin reduction assay; format: biochemical; settings: rutin 100 μM
T5 construct: MBP-PDI-b′xa′(235–479); His-tag; made in house; host or cells: E. coli BL21 (DE3)
T5 sequence (P07237 235-479 E359A): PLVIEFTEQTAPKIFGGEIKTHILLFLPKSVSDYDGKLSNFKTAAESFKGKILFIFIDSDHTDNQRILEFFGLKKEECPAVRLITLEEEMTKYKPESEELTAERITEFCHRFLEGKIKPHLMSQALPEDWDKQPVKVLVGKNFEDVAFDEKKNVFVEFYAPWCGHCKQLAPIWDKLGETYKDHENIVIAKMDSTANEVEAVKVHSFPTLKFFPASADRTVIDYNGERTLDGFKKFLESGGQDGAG
Procedure: (§2) The insulin reduction assay was performed to assess the enzymatic activity of PDI and its MBP-fused recombinant proteins. PDI can reduce insulin in the presence of dithiothreitol (DTT) along with increase in turbidity of the reaction mixture. We thus monitored spectrophotometrically the aggregation of reduced insulin through the increase of turbidity. The reductase activity was measured in 100 μL in presence of 600 μM insulin, 1.5 μM PDI and recombinant PDI proteins, 1 mM DTT, and with protein buffer (pH 7.4), at room temperature over 100 min by absorption at 650 nm. For inhibition assay, 100 μM of rutin, kaempferitrin, tiliroside and 2′-O-galloylhyperin or control buffer was added to the reaction system.
(§3) We further used the insulin reduction assay to measure the reductase activities of these site-directed MBP-PDI-b′xa′ mutants. This assay has typically good reproducibility as shown by a control experiment with three repetitions (Fig. S7 ^†). We found the PDI mutants maintained reductase activities in the presence of dithiothreitol (DTT). The H354A mutation lowered the reductase activity of wt MBP-PDI-b′xa′ (Fig. 3G) while other mutants had similar reductase activities with that of wt MBP-PDI-b′xa′ (Fig. 3C, F and H–J). Addition of rutin inhibited the reductase activities of both wt MBP-PDI-b′xa′ and the mutants (Fig. 3C and F–J). […] We quantified the inhibition of rutin on these MBP-PDI-b′xa′ mutants by measuring the increase of turbidity (OD650 at 100 min) upon addition of rutin (Fig. 3K).

MBP-PDI-b′xa′ E359K = target: T6, MBP-PDI-b′xa′ E359K (Homo sapiens, UniProt P07237, E359K); assay: Insulin reduction assay; format: biochemical; settings: rutin 100 μM
T6 construct: MBP-PDI-b′xa′(235–479); His-tag; made in house; host or cells: E. coli BL21 (DE3)
T6 sequence (P07237 235-479 E359K): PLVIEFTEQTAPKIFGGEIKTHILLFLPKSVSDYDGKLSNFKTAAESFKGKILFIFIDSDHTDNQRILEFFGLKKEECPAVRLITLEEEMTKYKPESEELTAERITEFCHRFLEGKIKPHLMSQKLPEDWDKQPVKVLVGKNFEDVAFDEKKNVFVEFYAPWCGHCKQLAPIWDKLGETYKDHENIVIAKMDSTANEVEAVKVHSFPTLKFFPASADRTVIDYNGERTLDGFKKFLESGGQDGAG
Procedure: as §2, §3

MBP-PDI-b′xa′ H354A = target: T7, MBP-PDI-b′xa′ H354A (Homo sapiens, UniProt P07237, H354A); assay: Insulin reduction assay; format: biochemical; settings: rutin 100 μM
T7 construct: MBP-PDI-b′xa′(235–479); His-tag; made in house; host or cells: E. coli BL21 (DE3)
T7 sequence (P07237 235-479 H354A): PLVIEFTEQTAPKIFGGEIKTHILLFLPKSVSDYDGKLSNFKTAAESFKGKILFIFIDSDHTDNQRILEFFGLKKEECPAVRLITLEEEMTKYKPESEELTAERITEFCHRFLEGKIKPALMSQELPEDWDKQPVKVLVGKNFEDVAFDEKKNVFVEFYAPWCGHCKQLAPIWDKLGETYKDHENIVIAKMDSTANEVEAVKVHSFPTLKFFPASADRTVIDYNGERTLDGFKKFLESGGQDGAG
Procedure: as §2, §3

MBP-PDI-b′xa′ K328E = target: T8, MBP-PDI-b′xa′ K328E (Homo sapiens, UniProt P07237, K328E); assay: Insulin reduction assay; format: biochemical; settings: rutin 100 μM
T8 construct: MBP-PDI-b′xa′(235–479); His-tag; made in house; host or cells: E. coli BL21 (DE3)
T8 sequence (P07237 235-479 K328E): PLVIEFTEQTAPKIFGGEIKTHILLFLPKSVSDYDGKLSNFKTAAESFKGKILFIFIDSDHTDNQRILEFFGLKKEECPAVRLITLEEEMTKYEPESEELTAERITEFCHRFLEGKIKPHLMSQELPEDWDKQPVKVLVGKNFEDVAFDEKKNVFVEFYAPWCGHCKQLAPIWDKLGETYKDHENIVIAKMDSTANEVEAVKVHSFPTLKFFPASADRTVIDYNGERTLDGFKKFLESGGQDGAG
Procedure: as §2, §3

MBP-PDI-b′xa′ L355R = target: T9, MBP-PDI-b′xa′ L355R (Homo sapiens, UniProt P07237, L355R); assay: Insulin reduction assay; format: biochemical; settings: rutin 100 μM
T9 construct: MBP-PDI-b′xa′(235–479); His-tag; made in house; host or cells: E. coli BL21 (DE3)
T9 sequence (P07237 235-479 L355R): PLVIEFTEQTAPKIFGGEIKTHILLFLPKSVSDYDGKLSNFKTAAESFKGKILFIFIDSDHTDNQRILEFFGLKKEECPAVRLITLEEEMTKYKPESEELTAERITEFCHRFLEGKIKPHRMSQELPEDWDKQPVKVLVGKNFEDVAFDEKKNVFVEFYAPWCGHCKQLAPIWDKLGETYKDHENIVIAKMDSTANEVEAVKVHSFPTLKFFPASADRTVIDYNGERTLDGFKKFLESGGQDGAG
Procedure: as §2, §3

wt MBP-PDI-b′xa′ = target: T10, wt MBP-PDI-b′xa′ (Homo sapiens, UniProt P07237); assay: Insulin reduction assay; format: biochemical
T10 construct: MBP-PDI-b′xa′(235–479); His-tag; made in house; host or cells: E. coli BL21 (DE3)
T10 sequence (P07237 235-479): as the sequence (P07237 235-479) above
Procedure: as §2, §3

[1] = system: platelet aggregation and fibrin generation; settings: cited from earlier work
ERp5 = system: ERp5; set-up: method as in PMID 22565308; settings: cited from earlier work
ERp72 = system: ERp72; set-up: method as in PMID 22565308; settings: cited from earlier work
thioredoxin = system: thioredoxin; set-up: method as in PMID 22565308; settings: cited from earlier work
[2] = mouse models, dose of 0.5 mg kg^−1

full-length human PDI, sequence (P07237 18-508): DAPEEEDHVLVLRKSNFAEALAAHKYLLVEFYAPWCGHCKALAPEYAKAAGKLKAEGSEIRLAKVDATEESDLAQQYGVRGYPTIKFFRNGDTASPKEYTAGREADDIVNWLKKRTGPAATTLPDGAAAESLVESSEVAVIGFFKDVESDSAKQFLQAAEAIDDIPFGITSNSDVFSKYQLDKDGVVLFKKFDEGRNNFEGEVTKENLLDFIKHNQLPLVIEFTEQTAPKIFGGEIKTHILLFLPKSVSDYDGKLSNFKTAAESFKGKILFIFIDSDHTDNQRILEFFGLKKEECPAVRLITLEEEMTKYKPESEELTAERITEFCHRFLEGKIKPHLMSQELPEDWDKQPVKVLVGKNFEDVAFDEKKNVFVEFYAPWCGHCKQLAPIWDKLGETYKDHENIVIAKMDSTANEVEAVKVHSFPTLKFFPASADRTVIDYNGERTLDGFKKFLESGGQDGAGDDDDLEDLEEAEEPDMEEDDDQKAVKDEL

## C[C@@H]1O[C@@H](OC[C@H]2O[C@@H](Oc3c(-c4ccc(O)c(O)c4)oc4cc(O)cc(O)c4c3=O)[C@H](O)[C@@H](O)[C@@H]2O)[C@H](O)[C@H](O)[C@H]1O [rutin]
full-length human PDI
  IC50: 31.1 µM
Human MBP-PDI-b′x
  IC50: 18.7 µM
Human MBP-PDI-b′xa′
  IC50: 28.8 µM
Murine MBP-mPDI-b′x
  IC50: 15.7 µM
Murine MBP-mPDI-b′xa′
  IC50: 26.3 µM
Murine proteins (mPDI)
  IC50: ~30 µM
MBP-PDI-b′xa′ E359A; increase of turbidity (OD650) at 100 min, E359A, read-out: Inhibitory efficiency (%)
  inhibition at 100 µM: 86%
MBP-PDI-b′xa′ E359A; last read (100 min), E359A alone 0.711
  turbidity (OD650), raw kinetic read at 1:40:32: 0.416
MBP-PDI-b′xa′ E359K; increase of turbidity (OD650) at 100 min, E359K, read-out: Inhibitory efficiency (%)
  inhibition at 100 µM: 88.8%
MBP-PDI-b′xa′ E359K; last read (100 min), E359K alone 0.698
  turbidity (OD650), raw kinetic read at 1:40:32: 0.4
MBP-PDI-b′xa′ H354A; increase of turbidity (OD650) at 100 min, H354A, read-out: Inhibitory efficiency (%)
  inhibition at 100 µM: 82.9%
MBP-PDI-b′xa′ H354A; last read (100 min), H354A alone 0.585
  turbidity (OD650), raw kinetic read at 1:40:32: 0.35
MBP-PDI-b′xa′ K328E; increase of turbidity (OD650) at 100 min, K328E, read-out: Inhibitory efficiency (%)
  inhibition at 100 µM: 99%
MBP-PDI-b′xa′ K328E; last read (100 min), K328E alone 0.777
  turbidity (OD650), raw kinetic read at 1:40:32: 0.4
MBP-PDI-b′xa′ L355R; L355R
  decrease of inhibitory efficiency compared with wt MBP-PDI-b′xa′: modest decrease
MBP-PDI-b′xa′ L355R; increase of turbidity (OD650) at 100 min, L355R, read-out: Inhibitory efficiency (%)
  inhibition at 100 µM: 98.4%
MBP-PDI-b′xa′ L355R; last read (100 min), L355R alone 0.819
  turbidity (OD650), raw kinetic read at 1:40:32: 0.424
Wt MBP-PDI-b′xa′; compound 100 μM, 1.5 μM protein, last read (100 min), WT alone 0.829
  turbidity (OD650), raw kinetic read at 1:40:32: 0.585
Wt MBP-PDI-b′xa′; rutin 100 μM, increase of turbidity (OD650) at 100 min, wt, read-out: Inhibitory efficiency (%)
  inhibition at 100 µM: 100%
[1]; mouse model, infusion of PDI b′x fragment
  reversal of inhibitory activities on PDI in vivo: rapidly reversed
[1]; [2]
  fibrin generation in vivo: blocked
  platelet aggregation in vivo: blocked
ERp5
  inhibition of ERp5: did not inhibit
ERp72
  inhibition of ERp72: did not inhibit
thioredoxin
  inhibition of thioredoxin: did not inhibit
